Reference: patent US20250296922A1, “POLYSUBSTITUTED PYRROLIDINE DERIVATIVE, PREPARATION METHOD THEREFOR AND USE THEREOF” (SHANGHAI WENNAI THERAPEUTICS CO LTD, priority 2023, published 2025)

Legend:
[1] = Stability of the compound in liver microsomes (mouse); assay type: in vitro ADME, CD-1 mouse; conditions: 1 μM compound, 0.5 mg protein/mL; for Mouse liver microsomes T½ / half-life at 1 μM: 37° C.; for half-life at 1 μM: CD-1, mouse, liver microsomes, read-out: Mouse liver microsomes T½
Experimental: (§1) 2.1.1. working solution: 5 μL of test or control compound stock solution (10 mM DMSO solution) was diluted with 495 μL of acetonitrile (ACN) to obtain an intermediate stock solution (100 μM, 99% ACN).
(§2) 2.2.2 Preparation procedure: An appropriate amount of NADPH powder was weighed and diluted with 10 mM MgCl2 buffer (working solution concentration: 10 mM; final reaction system concentration: 1 mM).
(§3) 2.3.2 Preparation procedure: The appropriate concentration of liver microsomal working solution was prepared in 100 mM potassium phosphate buffer;
(§4) Acetonitrile (ACN) solution at 4° C. containing 200 ng/mL of Tolbutamide and 200 ng/ml of labetalol as internal standards 2.5. Operation steps:
(§5) 2.5.2. Diluting liver microsomes with 100 mM potassium phosphate buffer to a concentration of 0.56 mg/mL.
(§6) 2.5.3. Transferring 445 μL of liver microsomal working solution (0.56 mg/mL) to pre-heated incubation plates T60 and NCF60, and then pre-heating the incubation plates T60 and NCF60 for 10 minutes at 37° C. with shaking. Transferring 54 μL of liver microsomes to each well of the blank plate, adding 6 μL of NAPDH coenzyme solution to the blank plate, and finally transferring 180 μL of termination solution to the blank plate.
(§7) 2.5.4 Adding 5 μL of compound working solution (100 μM) to the incubation plates T60 and NCF60 containing liver microsomes and mixing three times.
(§8) 2.5.5. Adding 50 μL of buffer to the NCF60 plate and mixing three times, starting the timer and incubating at 37° C. for 60 min with the plate shaking.
(§9) 2.5.6. Adding 180 μL of quenching solution and 6 μL of NAPDH coenzyme working solution sequentially to quenching plate TO, making sure that the plate was cold to prevent volatilization of the incubation solution.
(§10) 2.5.7. For plate T60, mixing well three times and immediately transferring 54 μL of mixing solution (0-min time point) to quenching plate TO, then adding 44 μL of NAPDH coenzyme working solution to incubation plate T60. Starting the timer:
(§11) 2.5.8. At the 5, 15, 30, 45 and 60 minute time points, adding 180 μL of quenching solution to the quenching plate and transferring 60 μL of reaction solution from the T60 plate to the quenching plate at each time point.
(§12) 2.5.9. For NCF60 plates, mixing well and transferring 60 μL of reaction solution from the NCF60 incubating solution to a quenching plate containing 180 μL of quenching solution at 60th minute.
(§13) 2.5.10. All plates were mixed on a shaker for 10 min and then centrifuged at 4000 rpm at 4° C. for 20 min.
(§14) 2.5.11. Transferring 80 μL of supernatant to 240 μL of HPLC water and mixing on a
(§15) 2.6.1. Calculating t1/2 and Clint (mic) values based on first-order elimination kinetics: […]

[2] = biological target: CYP2C19 (Homo sapiens (Human), UniProt P33261); experiment: Human liver microsomal CYP inhibition test, CYP2C19; assay type: in vitro ADME; conditions: human liver microsomes 0.2 mg/mL; substrate S-mephenytoin
Chain of CYP2C19 (P33261 whole entry): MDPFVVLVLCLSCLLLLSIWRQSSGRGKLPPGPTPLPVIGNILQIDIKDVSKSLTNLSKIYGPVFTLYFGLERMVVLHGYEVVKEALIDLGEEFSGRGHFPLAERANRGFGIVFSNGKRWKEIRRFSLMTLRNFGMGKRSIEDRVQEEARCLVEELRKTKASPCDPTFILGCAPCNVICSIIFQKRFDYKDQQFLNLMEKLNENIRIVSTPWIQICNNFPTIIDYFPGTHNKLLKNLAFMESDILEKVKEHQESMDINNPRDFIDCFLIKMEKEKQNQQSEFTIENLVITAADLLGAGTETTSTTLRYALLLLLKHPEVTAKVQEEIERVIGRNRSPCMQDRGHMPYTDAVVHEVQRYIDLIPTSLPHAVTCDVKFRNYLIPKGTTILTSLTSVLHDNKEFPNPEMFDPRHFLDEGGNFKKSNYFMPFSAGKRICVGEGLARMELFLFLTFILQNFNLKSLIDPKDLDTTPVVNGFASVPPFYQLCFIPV
Experimental: (§16) 3.1 Buffer solutions: (1) potassium phosphate 100 mM; (2) magnesium chloride, 33 mM;
(§17) 3.2.3 Reservoir for compounds to be tested: Dissolving the compounds to be tested in DMSO to form a 10 mM DMSO solution.
(§18) 3.5.3 Adding 20 μL of substrate solution to the appropriate wells and 20 μL of potassium phosphate buffer to the blank wells;
(§19) 3.5.4 Adding 2 μL of different concentrations of target compounds (final concentrations from 0.05 μM to 50 μM, 7 concentrations in total) or standard inhibitors to each well, with 2 μL of methanol solution in the non-inhibitor and blank wells;
(§20) 3.5.5 Adding 1.012 mL of liver microsomes to 78.988 mL of potassium phosphate buffer, then adding 158 μL of liver microsomes solution to all wells; preheating the well plate for 10 minutes in a 37° C. water bath;
(§21) 3.5.6 Weighing 129.1 mg NADPH (purchased from SyncoZymes Co. Ltd.) and adding to 15.0 mL of 33 Mm MgCl2 solution to give a 10 mM concentration, adding 20 μL to each well;
(§22) 3.5.7 Mixing and incubating the well plate in a 37° C. water bath for 10 minutes, then adding 400 μL of cold termination solution at the appropriate time point;
(§23) 3.5.8 Centrifuging the sample at 4000 rpm for 20 minutes to precipitate the protein. Transferring 200 μL of supernatant to 100 μL of HPLC water and shaking for 10 minutes. The samples were analyzed by LC/MS/MS;
(§24) Percentage inhibition was plotted for blank control and different concentrations of target compounds by using XL fitting or SigmaPlot and the data were analyzed by non-linear regression. IC50 values were determined by using either 3-parameter or 4-parameter logistic equations.

[3] = biological target: CYP2C9 (Homo sapiens (Human), UniProt P11712); experiment: Human liver microsomal CYP inhibition test, CYP2C9; assay type: in vitro ADME; conditions: human liver microsomes 0.2 mg/mL; substrate Diclofenac
Chain of CYP2C9 (P11712 whole entry): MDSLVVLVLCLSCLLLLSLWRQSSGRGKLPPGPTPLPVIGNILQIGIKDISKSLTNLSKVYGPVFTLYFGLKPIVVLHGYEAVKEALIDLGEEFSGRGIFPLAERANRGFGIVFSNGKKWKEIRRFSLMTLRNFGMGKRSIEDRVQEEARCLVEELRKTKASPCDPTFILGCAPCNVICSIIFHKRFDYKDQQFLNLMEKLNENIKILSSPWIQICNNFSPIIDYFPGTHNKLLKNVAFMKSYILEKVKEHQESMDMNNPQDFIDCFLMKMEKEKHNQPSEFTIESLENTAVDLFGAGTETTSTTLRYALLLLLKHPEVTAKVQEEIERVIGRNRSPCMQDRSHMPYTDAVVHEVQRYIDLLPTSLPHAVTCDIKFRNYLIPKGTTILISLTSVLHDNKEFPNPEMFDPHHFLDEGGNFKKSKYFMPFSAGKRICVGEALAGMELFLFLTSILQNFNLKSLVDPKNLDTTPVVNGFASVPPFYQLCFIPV
Experimental: as §16, §17
3.4.1 Preparation of human liver microsomal working solution (1.27×) (final concentration: 0.2 mg/mL)
as §18, §19, §20, §21, §22, §23, §24

[4] = Stability of the compound in liver microsomes (human); assay type: in vitro ADME; conditions: 1 μM compound, 0.5 mg protein/mL; for Human liver microsomes T½ / half-life at 1 μM: 37° C.; for half-life at 1 μM: human, liver microsomes, read-out: Human liver microsomes T½
Experimental: as §1, §2, §3, §4, §5, §6, §7, §8, §9, §10, §11, §12, §13, §14, §15

COc1c([C@H]2[C@H](C(=O)Nc3cccc(S(N)(=O)=O)c3)N[C@@](C)(C(F)(F)F)[C@H]2C)ccc(F)c1F [Compound 8, (2R,3S,4S,5R)-3-(3,4-difluoro-2-methoxyphenyl)-4,5-dimethyl-aza-(3-aminosulfonylphenyl)-5-(trifluoromethyl) pyrrolidine-2-carboxamide]
Mouse liver microsomes T½ [1]: 1.51 h | Mouse liver microsomes Residual (T = 60 min) [1]: 62.9% | IC50 [2]: 29 µM | IC50 [3]: 22.9 µM | Human liver microsomes T½ [4]: >2.42 h | Human liver microsomes Residual (T = 60 min) [4]: 80.3%

COc1c([C@H]2[C@H](C(=O)Nc3ccnc(C(N)=O)c3)O[C@@](C)(C(F)(F)F)[C@H]2C)ccc(F)c1F [VX-548, reference compound]
half-life at 1 μM [1]: 1.2 h | Mouse liver microsomes Residual (T = 60 min) [1]: 56.3% | IC50 [2]: 3.74 µM | IC50 [3]: 17.4 µM | Human liver microsomes Residual (T = 60 min) [4]: 70.9% | half-life at 1 μM [4]: 2.2 h

COc1c([C@H]2[C@H](C(=O)Nc3ccc[n+]([O-])c3)N[C@@](C)(C(F)(F)F)[C@H]2C)ccc(F)c1F [Compound 7, 3-((2R,3S,4S,5R)-3-(3,4-difluoro-2-methoxyphenyl)-4,5-dimethyl-5-(trifluoromethyl)pyrrolidine-2-carboxamido)pyridine 1-oxide]
half-life at 1 μM [1]: > 2.42 h | Mouse liver microsomes Residual (T = 60 min) [1]: 75.4% | IC50 [2]: 2.13 µM | IC50 [3]: > 50 µM | Human liver microsomes Residual (T = 60 min) [4]: 74.8% | half-life at 1 μM [4]: > 2.42 h

4-((2R,3S,4S,5R)-3-(3,4-difluoro-2-(methoxy-d3)phenyl)-4,5-dimethyl-5-(trifluoromethyl) pyrrolidine-2-carboxamido)pyridinamide [Compound 11]
Mouse liver microsomes T½ [1]: 1.24 h | Mouse liver microsomes Residual (T = 60 min) [1]: 52.9% | IC50 [3]: 41.4 µM | Human liver microsomes T½ [4]: 1.59 h | Human liver microsomes Residual (T = 60 min) [4]: 60.1%
